The values below come from patent US12017975B2, “Myc-Max inhibitor compound therapeutics for cancer treatment, methods and uses associated therewith” (THE UNIVERSITY OF BRITISH COLUMBIA, priority 2018, dated 2024).

pIC50: −log10 of the molar value. Residues, ends and D or L forms follow the SMILES beside them.

The first assay concerns Myc-Max transcriptional activity. Kind of assay: Cignal c-Myc luciferase reporter assay in LNCaP cells. It counts as cell-based. To be noted: Homo sapiens, LNCaP, 25 μM, TABLE 3; read-out: % Inhibition 25 μM. The method, then: Cell transfection was performed using TransIT-2020™ transfection reagents according to the manufacturer's instructions (Mirus™). LNCaP cells were plated at 10000 cells per well and treated for 1 day with the indicated concentration of compound. Myc reporter activity was measured using the Cignal Myc Reporter Assay Kit™ from Qiagen™ (#336841) according to the manufacturer's instructions. For the UBE2C reporter assay, 22rv1 cells were plated at 10000 cells per well in 96-well plates in RPMI media supplemented with 5% charcoal-stripped serum (CSS) and treated for 1 day with 1 μM, 10 μM and 25 μM of compound.
Compounds were subjected to experimental evaluation using the commercially available transcriptional assay Cignal c-Myc luciferase reporter assay in LNCaP cells. […] A transiently transfected Myc-driven luciferase reporter allowed the monitoring of Myc-regulated signal in LNCaP upon treatment with the in silico identified compounds.
On to `COc1ccc2[nH]cc(CCNC(=O)CCc3nc(-c4ccccc4)no3)c2c1` [VPC-70277], for which the inhibition at 25 µM turned out to be 95%.
In the case of `C[C@H](CCc1ccccc1)NC(=O)[C@H]1CCCN(C(=O)CCc2c[nH]c3ccccc23)C1` [VPC-70314], the inhibition at 25 µM is 93%.
Turning to `CC[C@@H]1Oc2cc(S(=O)(=O)N(C)CC(=O)N(C)Cc3ccccc3)c(C)cc2NC1=O` [VPC-70381], the inhibition at 25 µM came out at 74%.
For the compound `O=C(CCN1C(=O)S/C(=C/C=C/c2ccccc2)C1=O)NCCc1c[nH]c2ccccc12` [VPC-70387], the inhibition at 25 µM was determined as 82%.

Still in this assay, the particulars now being: Homo sapiens, LNCaP, 25 μM, TABLE 4; read-out: % Inhibition (25 μM).
Regarding `O=C1/C(=C/c2cccs2)SC(=S)N1c1cccc(O)c1` [VPC-70005], the inhibition at 25 µM came out at 65%.

Still in this assay, the particulars now being: Homo sapiens, LNCaP, 25 μM, TABLE 5; read-out: % Inhibition 25 μM.
For `CS(=O)(=O)Nc1ccccc1C(=O)OCc1cc(=O)oc2cc(O)ccc12` [VPC-70027], the inhibition at 25 µM amounted to 53%.
For `O=C(CN1C(=O)NC2(CCCC2)C1=O)Nc1cccc(C(F)(F)F)c1` [VPC-70066], the inhibition at 25 µM turned out to be 65%.
Turning to `O=C(CCc1csc(NC(=O)c2ccc(F)cc2)n1)NCCc1ccccc1` [VPC-70131], the inhibition at 25 µM was 50%.
Regarding `O=C(CSCCO)Nc1ccc(C23CC4CC(CC(C4)C2)C3)cc1` [VPC-70146], the inhibition at 25 µM was 52%.
On the same count and under the same terms, with `O=S(O)(=Nc1cccc2[nH]ccc12)C1CCc2n[nH]nc2C1` (stereo not drawn) [VPC-70158] the figure was 41%.
Regarding `Cc1ccc(Nc2ccccc2N=S(=O)(O)c2ccc(C(=O)O)cc2)cc1` [VPC-70163], the inhibition at 25 µM was determined as 39%.
On the same count and under the same terms, to `O=C(NCCCc1ccccc1)NC[C@](O)(c1ccccc1)C(F)(F)F` [VPC-70205] belongs 50%; to `O=C(NCCc1c[nH]c2ccccc12)C(=O)Nc1ccc(F)cc1` [VPC-70209], 52%.
Still for that read-out and setting: to `C[C@@H](NC(=O)OCc1ccccc1)C(=O)NCC(=O)Nc1ccc(F)c(F)c1` [VPC-70211] belongs 47%.
As to `Cc1c(NC(=O)[C@H](C)OC(=O)c2cccc(O)c2)c(=O)n(-c2ccccc2)n1C` [VPC-70216], the inhibition at 25 µM was 40%.
With `O=C(NCCc1c[nH]c2ccccc12)c1coc2ccccc2c1=O` [VPC-70219], the inhibition at 25 µM was determined as 67%.
Turning to `O=C(CNC(=O)NCc1ccc(F)cc1)NCc1ccc(OC(F)(F)F)cc1` [VPC-70222], the inhibition at 25 µM was determined as 68%.
`Cc1ccc(C(=O)NCC(=O)NCC(=O)Nc2ccc(F)c(F)c2F)cc1C` [VPC-70236]: the inhibition at 25 µM amounted to 32%.
On the same count and under the same terms, with `O=C(CCc1c[nH]c2ccccc12)NCc1noc(-c2ccccc2)n1` [VPC-70240] the figure was 48%; with `C[C@@H](NC(=O)NC[C@@H](O)COc1cccc(F)c1)c1cccs1` [VPC-70247], 35%.
Same read-out and setting: with `C[C@@H]1CCNC(=O)[C@H]1NC(=O)NCCCc1cccc(Cl)c1` [VPC-70249] the figure was 65%; with `O=C(CNC(=O)C1CCCC1)NC[C@@H](O)COc1cccc2ccccc12` [VPC-70252], 45%; with `C[C@@H]1CCCC[C@@H]1NC(=O)NCCCn1ccc2ccccc21` [VPC-70255], 40%.
For the compound `C[C@@H](NC1=NS(=O)(=O)c2ccccc21)C(=O)NCCCSc1ccccc1` [VPC-70258], the inhibition at 25 µM turned out to be 34%.
The same measure, in the same setting: with `C[C@@H](CCc1ccc(O)cc1)NC(=O)N[C@H]1CCOC2(CCCC2)C1` [VPC-70261] the figure was 35%.
Turning to `O=C(NCCNc1ncccn1)NC[C@@H](O)c1cccc(Cl)c1` [VPC-70263], the inhibition at 25 µM is 32%.
As for `O=C(NCCOc1cccc(Cl)c1)NCC[C@H](O)C(F)(F)F` [VPC-70266], the inhibition at 25 µM was 38%.
The same measure, in the same setting: to `Cc1nc(C(=O)NC[C@@H](O)COCc2ccccc2)c2ccccn12` [VPC-70267] belongs 47%.
As for `Cc1ccccc1OC[C@@H](O)C(=O)NCC1(O)C2CC3CC(C2)CC1C3` (stereo partly drawn) [VPC-70283], the inhibition at 25 µM was found to be 45%.
Turning to `NC(=O)CC[C@H](NC(=O)C1(c2ccccc2)CCN(C(=O)[C@@H]2CCCN2)CC1)C(=O)O` [VPC-70318], the inhibition at 25 µM came to 54%.
Regarding `NC(=O)c1ccc(NC(=O)COC(=O)[C@H](Cc2ccccc2)NC(=O)c2ccccc2)cc1` [VPC-70339], the inhibition at 25 µM was found to be 50%.
On to `COc1cccc(NC(=O)c2ccccc2N(C)C(=O)CCC(=O)NCc2ccccc2)c1` [VPC-70340], for which the inhibition at 25 µM is 49%.
Same read-out and setting: to `COc1ccccc1CNC(=O)c1ccc(N=S(=O)(O)c2ccc([C@@H](C)O)cc2)cc1` [VPC-70341] belongs 50%; to `CC(=O)N1c2ccc(S(=O)(O)=Nc3ccc(C(=O)NCC(=O)O)cc3)cc2C[C@@H]1C` [VPC-70343], 54%; to `O=C(O)CCC1CCN(C(=O)c2ccc(S(=O)(=O)NCc3cccs3)cc2)CC1` [VPC-70344], 49%.
On the same count and under the same terms, to `COc1ccccc1-c1noc(CNC(=O)N[C@H](Cc2c[nH]c3ccccc23)C(=O)O)n1` [VPC-70345] belongs 51%; to `O=C(CSc1nc2ccccc2c(=O)n1CCCO)NC(=O)Nc1ccccc1F` [VPC-70355], 51%.
Consider `Cc1ccccc1C(=O)N[C@H](CC(C)C)C(=O)N1CCN(S(=O)(=O)c2nc[nH]n2)CC1` [VPC-70356], for which the inhibition at 25 µM was 53%.
For the compound `Cc1ccc(C(=O)N(C)c2ccc(OCC(=O)NCc3ccc(C(=O)O)cc3)cc2)cc1` [VPC-70358], the inhibition at 25 µM stood at 48%.
The same measure, in the same setting: to `COCCn1c(Cc2ccccc2)nnc1SCC(=O)c1ccc2c(c1)CCC(=O)N2` [VPC-70359] belongs 41%; to `C[C@H](OC(=O)[C@@H]1CCCN1C(=O)C12CC3CC(CC(C3)C1)C2)C(=O)c1c[nH]c2ccccc12` [VPC-70360], 64%.
For the compound `CS(=O)(=O)NCCc1ccc(C(=O)NC[C@H](c2cccs2)c2c[nH]c3ccccc23)cc1` [VPC-70361], the inhibition at 25 µM is 61%.
As for `C[C@H]1CC[C@H](C(N)=O)CN1C(=O)c1cccc(S(=O)(O)=Nc2cccc(Cl)c2)c1` [VPC-70366], the inhibition at 25 µM was 60%.
With `O=C1COc2ccc(S(=O)(=O)N3CCC(C(=O)NC4CCCCCC4)CC3)cc2N1` [VPC-70376], the inhibition at 25 µM amounted to 55%.
Take `Cc1ccsc1CCNC(=O)CCS(=O)(=O)c1cc2c(cc1Cl)NC(=O)CO2` [VPC-70377]: the inhibition at 25 µM amounted to 52%.
Take `CCOCCOc1nc(-c2cccc(F)c2)n(-c2ccc(NC[C@H](O)COC)cc2)n1` [VPC-70379]: the inhibition at 25 µM was found to be 52%.
With `Cc1cc2c(cc1S(=O)(=O)N1CCN(C(=O)CCC3CCCC3)CC1)OCC(=O)N2` [VPC-70380], the inhibition at 25 µM was found to be 68%.
For the compound `Cc1cccc(CSc2nc(O)c3c(n2)NC(=O)C[C@H]3C(=O)Nc2cccc(F)c2)c1` [VPC-70384], the inhibition at 25 µM worked out at 53%.
In the case of `C[C@@H](NC(=O)OCc1ccccc1)C(=O)N[C@H](CCC(N)=O)C(=O)OCc1ccc([N+](=O)[O-])cc1` [VPC-70386] (HELM PEPTIDE1{[O=C(OCc1ccccc1)[*:2]].[dA].[dQ].[O=[N+]([O-])c1ccc(CO[*:1])cc1]}$$$$V2.0), the inhibition at 25 µM is 55%.

The same assay, now with this note: Homo sapiens, LNCaP, 24 h, 25 μM, LNCaP cells, TABLE 1; read-out: Myc-Max transcriptional activity % inhibition (25 μM).
`O=C1/C(=C/c2cccs2)SC(=S)N1c1cccc(O)c1` [VPC-70005]: the inhibition at 25 µM was 65%.
The same measure, in the same setting: with `CS(=O)(=O)Nc1ccccc1C(=O)OCc1cc(=O)oc2cc(O)ccc12` [VPC-70027] the figure was 53%; with `O=C(CN1C(=O)NC2(CCCC2)C1=O)Nc1cccc(C(F)(F)F)c1` [VPC-70066], 65%.

Staying with this assay, now noted: Homo sapiens, LNCaP; TABLE 2; assay not named, values match Myc-Max transcriptional activity; read-out: IC50.
`O=C1/C(=C/c2cccs2)SC(=S)N1c1cccc(O)c1` [VPC-70005]: the pIC50 was less than 4.60.
With `O=C(NCCc1c[nH]c2ccccc12)c1coc2ccccc2c1=O` [VPC-70219], the pIC50 is less than 4.60.
On to `COc1ccc2[nH]cc(CCNC(=O)CCc3nc(-c4ccccc4)no3)c2c1` [VPC-70277], for which the pIC50 is less than 4.60.
For the compound `C[C@H](CCc1ccccc1)NC(=O)[C@H]1CCCN(C(=O)CCc2c[nH]c3ccccc23)C1` [VPC-70314], the pIC50 is 4.82.
`CC[C@@H]1Oc2cc(S(=O)(=O)N(C)CC(=O)N(C)Cc3ccccc3)c(C)cc2NC1=O` [VPC-70381]: the pIC50 was 4.70.
